Patent publication US20240417374A1, “SMALL MOLECULE ANTAGONIST TO PACAP RECEPTOR AND USES THEREOF” (The University of Vermont and State Agricultural College, priority 2021, published 2024)
Where “and” joins values, the source holds several entries; their conditions need not be identical. Equal values may be shown once.

Assays:
PAC1 receptor [1] = biological target: T1, PAC1 receptor (Homo sapiens, UniProt P41586); parameters: expressed in transfected cells; details: earlier work, WO/2020/168068; cited from earlier work
T1 sequence (P41586 21-468): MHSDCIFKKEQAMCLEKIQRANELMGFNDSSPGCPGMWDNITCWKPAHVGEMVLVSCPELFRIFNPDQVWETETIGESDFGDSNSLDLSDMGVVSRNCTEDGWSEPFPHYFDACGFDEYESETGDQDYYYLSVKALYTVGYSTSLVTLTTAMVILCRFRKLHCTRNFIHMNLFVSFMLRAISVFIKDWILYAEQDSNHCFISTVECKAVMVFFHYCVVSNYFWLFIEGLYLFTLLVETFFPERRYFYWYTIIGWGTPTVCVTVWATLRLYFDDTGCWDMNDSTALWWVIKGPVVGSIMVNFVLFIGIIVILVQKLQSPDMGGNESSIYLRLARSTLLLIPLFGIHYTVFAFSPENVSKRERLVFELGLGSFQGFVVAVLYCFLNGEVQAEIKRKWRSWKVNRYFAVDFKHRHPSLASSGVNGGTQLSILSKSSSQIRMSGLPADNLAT

PAC1 receptor [2] = biological target: T1, PAC1 receptor; assay: Inhibition of 20 nM PACAP-stimulated ERK activation in stable PAC1 receptor HEK cells (Western blot); assay type: cell-based; parameters: expressed in transfected cells; details: for efficacy and potency in blocking PACAP/PAC1 receptor-stimulated ERK activation, in words: stable human HEK PAC1 receptor cell line, FIGS. 1 and 2
[3] = tested on: PACAP-induced anxiety-related behaviors; details: earlier work, WO/2020/168068; cited from earlier work
PAC1 receptor [4] = biological target: T1, PAC1 receptor; parameters: expressed in transfected cells; details: earlier work, WO/2020/168068; cited from earlier work; remark: listed apart in the source
PAC1 receptor [5] = biological target: T1, PAC1 receptor; parameters: expressed in transfected cells; details: earlier work, WO/2020/168068; cited from earlier work; remark: listed apart in the source
PAC1 receptor [6] = biological target: T1, PAC1 receptor; assay: PACAP-induced calcium flux in HEK PAC1R stable cell lines; assay type: cell-based; parameters: expressed in transfected cells; details: 20 nM PACAP, FIG. 3A, read-out: calculated IC50, attenuation of PACAP-induced calcium flux
PAC1 receptor [7] = biological target: T1, PAC1 receptor; assay: PAC1 receptor-stimulated adenylyl cyclase cAMP activation; assay type: cell-based
rats = assay: Elevated plus maze after bilateral BNST infusion, PACAP-induced anxiety-like responses; assay type: in vivo, rat; details: FIG. 3B
Procedure: FIG. 3 depicts that PAC1 receptor antagonist RJB-145 blocks PACAP-induced signaling and anxiety-like behavioral responses. […] 20 μM RJB-145 blocked PACAP-stimulated ERK activation nearly 75%. Data represent mean +/− SEM; n=3−4 wells/group. […] Anxiety ridden rats avoid the open arms of the maze and prefer traveling into the closed arms. […] Data represent mean +/− SEM; n=8-10 animals/group; **, statistically different from vehicle, RJB145 and PACAP+RJB145 at p<0.01.

[8] = 20 nM PACAP, PAC1 receptor HEK cells, FIG. 2, read-out: apparent IC50, inhibition of PACAP-stimulated ERK activation

## O=C(N/N=C/c1cccc2c1ccn2Cc1cc(F)cc(F)c1)c1ccc(O)c(Cl)c1 [JF-214]
PAC1 receptor [1]
  PAC1 receptor internalization: blocked
PAC1 receptor [2]; [8]
  IC50: 5 to 8 µM
[3]
  blocking PACAP-induced anxiety-related behaviors in vivo: demonstrated efficacy
PAC1 receptor [4]
  PACAP-stimulated PAC1 receptor plasma membrane calcium signaling: blocked
PAC1 receptor [5]
  PAC1 receptor endosomal ERK signaling: blocked
  combination with GCGR antagonist MK-0893 to inhibit PACAP/PAC1 receptor mediated ERK activation: acted synergistically

## O=C(Nc1ccc(S(=O)(=O)Nc2ccccc2)cc1)c1cc2ccccc2[nH]1 [RJB-88]
PAC1 receptor [2]; [8]
  IC50: ~25 µM
PAC1 receptor [2]
  efficacy and potency in blocking PACAP/PAC1 receptor-stimulated ERK activation, in words: appeared less potent

## O=C(Nc1ccc(S(=O)(=O)Nc2cc(F)cc(F)c2)cc1)c1cc2ccccc2[nH]1 [RJB-145]
PAC1 receptor [6]
  IC50: 8.5 µM
PAC1 receptor [2]; 20 nM PACAP, HEK PAC1R stable cell lines, FIG. 3A, read-out: calculated IC50, attenuation of PACAP-induced ERK activation
  IC50: 9 µM
PAC1 receptor [2]; [8]
  IC50: ~10 µM and 10 µM
PAC1 receptor [2]; 20 μM compound, FIG. 3A
  block of PACAP-stimulated ERK activation: ~75%
PAC1 receptor [2]; 25 μM pretreatment, 20 nM PACAP, FIG. 1
  blocking PACAP/PAC1 receptor stimulated ERK activation (Western blot): demonstrate efficacy
PAC1 receptor [2]
  efficacy and potency in blocking PACAP/PAC1 receptor-stimulated ERK activation, in words: shows efficacy and potency
PAC1 receptor [7]
  effect on PAC1 receptor-stimulated adenylyl cyclase cAMP activation: without significant effects
rats; 20 μM/0.5 μL bilaterally into BNST of rats, 5 min per trial
  behavioral effect on elevated plus maze, compound infused alone: no behavioral effects compared to vehicle
rats; PACAP+RJB-145 infused bilaterally into BNST of rats
  antagonism of PACAP-induced anxiety-like responses (open arm time) on elevated plus maze: completely antagonize the PACAP-induced anxiety-like responses to control vehicle levels
